# Reference: ChEMBL document CHEMBL4270599, “Synthesis of a 3'-C-ethynyl-β-d-ribofuranose purine nucleoside library: Discovery of C7-deazapurine analogs as potent antiproliferative nucleosides” (Eur J Med Chem, 2018)
# Key:
# Format in all cases: functional
# ACHN [1] = assay: Growth inhibition of human ACHN cells assessed as cell growth at 10^-8 M incubated for 48 hrs by sulforhodamine B assay relative to control; conditions: read-out: Activity
# K562 [2] = assay: Growth inhibition of human K562 cells assessed as cell growth at 10^-6 M incubated for 48 hrs by sulforhodamine B assay relative to control; conditions: K562, 48 h, read-out: Activity
# OVCAR-5 = assay: Growth inhibition of human OVCAR5 cells assessed as cell growth at 10^-4 M incubated for 48 hrs by sulforhodamine B assay relative to control; conditions: OVCAR-5, 48 h, read-out: Activity
# SR [3] = assay: Growth inhibition of human SR cells assessed as cell growth at 10^-6 M incubated for 48 hrs by sulforhodamine B assay relative to control; conditions: read-out: Activity
# SR [4] = assay: Growth inhibition of human SR cells assessed as cell growth at 10^-7 M incubated for 48 hrs by sulforhodamine B assay relative to control; conditions: read-out: Activity
# OVCAR-4 [5] = assay: Growth inhibition of human OVCAR4 cells assessed as cell growth at 10^-5 M incubated for 48 hrs by sulforhodamine B assay relative to control; conditions: OVCAR-4, 48 h, read-out: Activity
# OVCAR-4 [6] = assay: Growth inhibition of human OVCAR4 cells assessed as cell growth at 10^-7 M incubated for 48 hrs by sulforhodamine B assay relative to control; conditions: OVCAR-4, 48 h, read-out: Activity
# HCC 2998 = assay: Growth inhibition of human HCC2998 cells assessed as cell growth at 10^-8 M incubated for 48 hrs by sulforhodamine B assay relative to control; conditions: HCC 2998, 48 h, read-out: Activity
# NCI-H226 [7] = assay: Growth inhibition of human NCI-H226 cells assessed as cell growth at 10^-5 M incubated for 48 hrs by sulforhodamine B assay relative to control; conditions: NCI-H226, 48 h, read-out: Activity
# NCI-H226 [8] = assay: Growth inhibition of human NCI-H226 cells assessed as cell growth at 10^-6 M incubated for 48 hrs by sulforhodamine B assay relative to control; conditions: NCI-H226, 48 h, read-out: Activity
# RXF 393 = assay: Growth inhibition of human RXF393 cells assessed as cell growth at 10^-7 M incubated for 48 hrs by sulforhodamine B assay relative to control; conditions: RXF 393, 48 h, read-out: Activity
# MOLT-4 [9] = assay: Growth inhibition of human MOLT4 cells assessed as cell growth at 10^-7 M incubated for 48 hrs by sulforhodamine B assay relative to control; conditions: MOLT-4, 48 h, read-out: Activity
# K562 [10] = assay: Cytotoxicity against human K562 cells after 48 hrs by SRB assay; conditions: K562, 48 h; for GI50: read-out: GI50
# ACHN [11] = assay: Growth inhibition of human ACHN cells assessed as cell growth at 10^-5 M incubated for 48 hrs by sulforhodamine B assay relative to control; conditions: read-out: Activity
# EKVX [12] = assay: Growth inhibition of human EKVX cells assessed as cell growth at 10^-8 M incubated for 48 hrs by sulforhodamine B assay relative to control; conditions: read-out: Activity
# K562 [13] = assay: Growth inhibition of human K562 cells assessed as cell growth at 10^-5 M incubated for 48 hrs by sulforhodamine B assay relative to control; conditions: K562, 48 h, read-out: Activity
# MOLT-4 [14] = assay: Cytotoxicity against human MOLT4 cells after 48 hrs by SRB assay; conditions: MOLT-4, 48 h; for GI50: read-out: GI50
# MDA-MB-231 = assay: Growth inhibition of human MDA-MB-231 cells assessed as cell growth at 10^-8 M incubated for 48 hrs by sulforhodamine B assay relative to control; conditions: MDA-MB-231, 48 h, read-out: Activity
# IGROV-1 = assay: Growth inhibition of human IGROV1 cells assessed as cell growth at 10^-7 M incubated for 48 hrs by sulforhodamine B assay relative to control; conditions: IGROV-1, 48 h, read-out: Activity
# DU-145 [15] = assay: Growth inhibition of human DU145 cells assessed as cell growth at 10^-8 M incubated for 48 hrs by sulforhodamine B assay relative to control; conditions: DU-145, 48 h, read-out: Activity
# BT-549 [16] = assay: Cytotoxicity against human BT549 cells after 48 hrs by SRB assay; conditions: BT-549, 48 h; for GI50: read-out: GI50; for TGI: read-out: TGI
# COLO 205 = assay: Cytotoxicity against human COLO205 cells after 48 hrs by SRB assay; conditions: COLO 205, 48 h; for GI50: read-out: GI50; for CC50: read-out: LC50 (the source's name); for TGI: read-out: TGI
# NCI-H23 = assay: Growth inhibition of human NCI-H23 cells assessed as cell growth at 10^-7 M incubated for 48 hrs by sulforhodamine B assay relative to control; conditions: NCI-H23, 48 h, read-out: Activity
# Hs-578T = assay: Growth inhibition of human Hs 578T cells assessed as cell growth at 10^-8 M incubated for 48 hrs by sulforhodamine B assay relative to control; conditions: read-out: Activity
# DU-145 [17] = assay: Growth inhibition of human DU145 cells assessed as cell growth at 10^-6 M incubated for 48 hrs by sulforhodamine B assay relative to control; conditions: DU-145, 48 h, read-out: Activity
# MCF7 = assay: Growth inhibition of human MCF7 cells assessed as cell growth at 10^-6 M incubated for 48 hrs by sulforhodamine B assay relative to control; conditions: MCF7, 48 h, read-out: Activity
# UACC-62 = assay: Growth inhibition of human UACC62 cells assessed as cell growth at 10^-7 M incubated for 48 hrs by sulforhodamine B assay relative to control; conditions: UACC-62, 48 h, read-out: Activity
# EKVX [18] = assay: Growth inhibition of human EKVX cells assessed as cell growth at 10^-7 M incubated for 48 hrs by sulforhodamine B assay relative to control; conditions: read-out: Activity
# SF-268 = assay: Growth inhibition of human SF268 cells assessed as cell growth at 10^-7 M incubated for 48 hrs by sulforhodamine B assay relative to control; conditions: SF-268, 48 h, read-out: Activity
# ACHN [19] = assay: Growth inhibition of human ACHN cells assessed as cell growth at 10^-4 M incubated for 48 hrs by sulforhodamine B assay relative to control; conditions: read-out: Activity
# BT-549 [20] = assay: Growth inhibition of human BT549 cells assessed as cell growth at 10^-8 M incubated for 48 hrs by sulforhodamine B assay relative to control; conditions: BT-549, 48 h, read-out: Activity
# SK-MEL-28 = assay: Growth inhibition of human SK-MEL-28 cells assessed as cell growth at 10^-7 M incubated for 48 hrs by sulforhodamine B assay relative to control; conditions: SK-MEL-28, 48 h, read-out: Activity
# SW-620 = assay: Cytotoxicity against human SW620 cells after 48 hrs by SRB assay; conditions: SW-620, 48 h; for GI50: read-out: GI50
# SR [21] = assay: Growth inhibition of human SR cells assessed as cell growth at 10^-4 M incubated for 48 hrs by sulforhodamine B assay relative to control; conditions: read-out: Activity
# [22] = read-out: pLC50 (the source's name) (converted)
# [23] = read-out: LC50 (the source's name)
smiles,measurement,setting,value
C#C[C@@]1(O)[C@@H](CO)O[C@@H](n2cc(I)c3c(N)ncnc32)[C@@H]1O,growth at 0.01 µM,ACHN [1],98%
same,growth at 1 µM,K562 [2],17 to 22%
same,growth at 100 µM,OVCAR-5,2 to 5%
same,growth at 1 µM,SR [3],21 to 24%
same,growth at 0.1 µM,SR [4],60 to 86%
same,growth at 10 µM,OVCAR-4 [5],9 to 13%
same,growth at 0.1 µM,OVCAR-4 [6],87 to 91%
same,growth at 0.01 µM,HCC 2998,87 to 90%
same,growth at 10 µM,NCI-H226 [7],6 to 10%
same,growth at 1 µM,NCI-H226 [8],57 to 70%
same,growth at 0.1 µM,RXF 393,82 to 90%
same,growth at 0.1 µM,MOLT-4 [9],39 to 52%
same,GI50,K562 [10],59.5 to 69 nM
same,TGI,K562 [10]; read-out: TGI,> 100000 nM
same,CC50,K562 [10]; [22],> 100000 nM
same,TGI,K562 [10]; read-out: pTGI,> 100000 nM
same,growth at 10 µM,ACHN [11],5%
same,growth at 0.01 µM,EKVX [12],79 to 90%
same,growth at 10 µM,K562 [13],7%
same,GI50,MOLT-4 [14],48.9 to 108 nM
same,TGI,MOLT-4 [14]; read-out: TGI,831 nM
same,CC50,MOLT-4 [14]; [22],> 100000 nM
same,TGI,MOLT-4 [14]; read-out: pTGI (converted),832 nM
same,growth at 0.01 µM,MDA-MB-231,96 to 100%
same,growth at 0.1 µM,IGROV-1,5 to 13%
same,growth at 0.01 µM,DU-145 [15],91 to 94%
same,GI50,BT-549 [16],175 to 384 nM
same,TGI,BT-549 [16],3260 to 4940 nM
same,CC50,BT-549 [16]; [22],> 100000 nM
same,GI50,COLO 205,44.8 to 170 nM
same,CC50,COLO 205,4780 to 6740 nM
same,TGI,COLO 205,393 to 1270 nM
same,growth at 0.1 µM,NCI-H23,67 to 75%
same,growth at 0.01 µM,Hs-578T,78 to 87%
same,growth at 1 µM,DU-145 [17],19 to 26%
same,growth at 1 µM,MCF7,1 to 6%
same,growth at 0.1 µM,UACC-62,81 to 84%
same,growth at 0.1 µM,EKVX [18],69 to 75%
same,growth at 0.1 µM,SF-268,70 to 73%
same,growth at 100 µM,ACHN [19],1%
same,growth at 0.01 µM,BT-549 [20],86 to 96%
same,growth at 0.1 µM,SK-MEL-28,86 to 88%
same,GI50,SW-620,57.2 to 59 nM
same,TGI,SW-620; read-out: TGI,> 100000 nM
same,CC50,SW-620; [22],> 100000 nM
same,TGI,SW-620; read-out: pTGI (converted),> 100000 nM
C#C[C@@]1(O)[C@@H](CO)O[C@@H](n2cc(Br)c3c(N)ncnc32)[C@@H]1O,growth at 0.01 µM,ACHN [1],97%
same,growth at 1 µM,K562 [2],7 to 10%
same,growth at 1 µM,SR [3],7 to 9%
same,growth at 0.1 µM,SR [4],20 to 46%
same,growth at 10 µM,OVCAR-4 [5],7%
same,growth at 0.1 µM,OVCAR-4 [6],78 to 89%
same,growth at 0.01 µM,HCC 2998,86 to 99%
same,growth at 1 µM,NCI-H226 [8],27 to 66%
same,growth at 0.1 µM,RXF 393,81 to 103%
same,growth at 0.1 µM,MOLT-4 [9],44 to 66%
same,GI50,K562 [10],41.1 to 90 nM
same,CC50,K562 [10]; [23],> 100000 nM
same,TGI,K562 [10]; read-out: TGI,> 100000 nM
same,TGI,K562 [10]; read-out: pTGI,> 100000 nM
same,growth at 10 µM,ACHN [11],-7%
same,growth at 0.01 µM,EKVX [12],85%
same,growth at 10 µM,K562 [13],6 to 7%
same,GI50,MOLT-4 [14],70.8 to 178 nM
same,CC50,MOLT-4 [14]; [23],> 100000 nM
same,TGI,MOLT-4 [14]; read-out: TGI,778 to 100000 nM
same,growth at 100 µM,SR [21],2 to 6%
same,growth at 0.01 µM,MDA-MB-231,90 to 104%
same,growth at 0.1 µM,IGROV-1,11 to 43%
same,growth at 0.01 µM,DU-145 [15],98 to 100%
same,GI50,BT-549 [16],147 to 234 nM
same,CC50,BT-549 [16]; [23],> 100000 nM
same,TGI,BT-549 [16],536 to 819 nM
same,GI50,COLO 205,43.6 to 182 nM
same,CC50,COLO 205,8040 to 100000 nM
same,TGI,COLO 205,235 to 903 nM
same,growth at 0.1 µM,NCI-H23,61 to 70%
same,growth at 0.01 µM,Hs-578T,90 to 96%
same,growth at 1 µM,DU-145 [17],15 to 16%
same,growth at 1 µM,MCF7,3 to 5%
same,growth at 0.1 µM,UACC-62,56 to 84%
same,growth at 0.1 µM,EKVX [18],60 to 74%
same,growth at 0.1 µM,SF-268,78 to 87%
same,growth at 100 µM,ACHN [19],7%
same,growth at 0.01 µM,BT-549 [20],89 to 103%
same,growth at 0.1 µM,SK-MEL-28,77 to 94%
same,GI50,SW-620,31.2 to 76 nM
same,CC50,SW-620; [23],> 100000 nM
same,TGI,SW-620; read-out: TGI,> 100000 nM
same,TGI,SW-620; read-out: pTGI (converted),> 100000 nM
